Reference: publication PMC9786284, “Synthesis and Antiproliferative Effect of Halogenated Coumarin Derivatives” (Molecules, 2022)

System: not listed separately
Experiment: MTT cell viability assay
Assay type: cell-based
Conditions: human, MRC-5 lung fibroblasts; MRC-5; MTT, 24 h; concentration required to inhibit cell proliferation by 50%; mean ± SD
Experimental: (§1) The cytotoxic effect of coumarins 2a–k was tested on several cancer and normal cell lines: lung cancer cell line (SK-MES-1), thyroid cancer cell lines (K-1; B-CPAP ant TPC-1), lung fibroblast (MRC-5) and thyroid normal cell line (Nthy-ori-3-1) by MTT (3-[4,5-dimethylthiazol-2-yl]-2,5 diphenyltetrazolium bromide) assay.
(§2) The papillary thyroid carcinoma (PTC)-derived cell lines (TPC-1 and B-CPAP) were kindly provided by Dr. Fusco (Medical School, University Federico II of Naples, Naples, Italy). K-1 PTC-derived cell line and non-tumorigenic thyroid Nthy-ori-3-1 cell line were purchased from Health Protection Agency Culture Collections. The PTC-derived cell lines were maintained in DMEM/F12 (Gibco-BRL. Life Technologies, Milan, Italy)] supplemented with 10% fetal bovine serum (Gibco-BRL) at 37 °C in humidified 5% CO2. SK-MES-1 and MRC-5 were purchased from American Type Culture Collection (ATCC) and were maintained in Mem-E medium, supplemented with 10% fetal bovine serum, 100 units/mL penicillin G, and 100 μg/mL streptomycin (Gibco-BRL) at 37 °C in humidified 5% CO2.
(§3) The effect of test compounds on the viability of cells was detected by MTT assay. The thyroid cells (7.5 × 10^3 cells/mL), SK-MES-1, and MRC-5 (8 × 10^4 cells/mL) were seeded into a 96-well plate and allowed to adhere for 16 h to culture plates before the addition of the compounds.
(§4) Then, compounds were added at different concentrations (0.8–100 μM), and cells were further incubated for 24 h. Cells with no treatment were used as a negative control. After incubation, cells were treated with MTT solution for 3 h at 37 °C. Then, the MTT solution was removed, and 150 µL of DMSO was added to the wells. The absorbances were measured at 570 nm using a TECAN microplate reader (Infinite 200, Tecan, Salzburg, Austria). Viability data were reported as % of control (untreated cells) for each cell line.

| Compound | CC50 at 24 h [µM] |
| --- | --- |
| N#Cc1cc2cc(F)ccc2oc1=O [2a, 6-Fluoro-2-oxo-2H-chromene-3-carbonitrile] | > 100 |
| N#Cc1cc2cc(Cl)ccc2oc1=O [2c, 6-Chloro-2-oxo-2H-chromene-3-carbonitrile] | > 100 |
| CCOC(=O)c1cc2cc(Br)ccc2oc1=O [2d, Ethyl 6-bromo-2-oxo-2H-chromene-3-carboxylate] | > 100 |
| N#Cc1cc2cc(Br)ccc2oc1=O [2e, 6-Bromo-2-oxo-2H-chromene-3-carbonitrile] | > 100 |
| CS(=O)(=O)c1cc2cc(Br)ccc2oc1=O [2f, 6-Bromo-3-(methylsulfonyl)-2H-chromen-2-one] | > 100 |
| CCOC(=O)c1cc2cc(Br)cc(Br)c2oc1=O [2g, Ethyl 6,8-dibromo-2-oxo-2H-chromene-3-carboxylate] | > 100 |
| CCOC(=O)c1cc2cc(I)cc(I)c2oc1=O [2i, Ethyl 6,8-diiodo-2-oxo-2H-chromene-3-carboxylate] | > 100 |
| O=C(O)c1cc2cc(I)cc(I)c2oc1=O [2j, 6,8-diiodo-2-oxo-2H-chromene-3-carboxylic Acid] | > 100 |
| CC[C@@]1(O)C(=O)OCc2c1cc1n(c2=O)Cc2cc3ccccc3nc2-1 [Camptothecin, reference compound] | 0.1 ± 0.03 |

Same assay, conditions: human, Nthy-ori-3-1 normal thyroid cells; Nthy-ori-3-1; MTT, 24 h; concentration required to inhibit cell proliferation by 50%; mean ± SD

| Compound | CC50 at 24 h [µM] |
| --- | --- |
| N#Cc1cc2cc(F)ccc2oc1=O [2a, 6-Fluoro-2-oxo-2H-chromene-3-carbonitrile] | > 100 |
| N#Cc1cc2cc(Cl)ccc2oc1=O [2c, 6-Chloro-2-oxo-2H-chromene-3-carbonitrile] | > 100 |
| CCOC(=O)c1cc2cc(Br)ccc2oc1=O [2d, Ethyl 6-bromo-2-oxo-2H-chromene-3-carboxylate] | > 100 |
| N#Cc1cc2cc(Br)ccc2oc1=O [2e, 6-Bromo-2-oxo-2H-chromene-3-carbonitrile] | > 100 |
| CS(=O)(=O)c1cc2cc(Br)ccc2oc1=O [2f, 6-Bromo-3-(methylsulfonyl)-2H-chromen-2-one] | > 100 |
| CCOC(=O)c1cc2cc(Br)cc(Br)c2oc1=O [2g, Ethyl 6,8-dibromo-2-oxo-2H-chromene-3-carboxylate] | > 100 |
| CCOC(=O)c1cc2cc(I)cc(I)c2oc1=O [2i, Ethyl 6,8-diiodo-2-oxo-2H-chromene-3-carboxylate] | > 100 |
| O=C(O)c1cc2cc(I)cc(I)c2oc1=O [2j, 6,8-diiodo-2-oxo-2H-chromene-3-carboxylic Acid] | > 100 |
| CC[C@@]1(O)C(=O)OCc2c1cc1n(c2=O)Cc2cc3ccccc3nc2-1 [Camptothecin, reference compound] | 0.01 ± 0.02 |

System: B-CPAP thyroid cancer cell line
Experiment: MTT cell viability assay
Assay type: cell-based
Conditions: not given
Experimental: as §1, §2, §3, §4

| Compound | CC50 [µM] |
| --- | --- |
| Ethyl 6-fluoro-2-oxo-2H-chromene-3-carboxylate [2b] | > 100 |

Same assay, conditions: Homo sapiens, BCPAP; B-CPAP; MTT, 24 h; concentration required to inhibit cell proliferation by 50%; mean ± SD; read-out: CC50

| Compound | CC50 [µM] |
| --- | --- |
| N#Cc1cc2cc(F)ccc2oc1=O [2a, 6-Fluoro-2-oxo-2H-chromene-3-carbonitrile] | > 100 |
| N#Cc1cc2cc(Cl)ccc2oc1=O [2c, 6-Chloro-2-oxo-2H-chromene-3-carbonitrile] | > 100 |
| CCOC(=O)c1cc2cc(Br)ccc2oc1=O [2d, Ethyl 6-bromo-2-oxo-2H-chromene-3-carboxylate] | > 100 |
| N#Cc1cc2cc(Br)ccc2oc1=O [2e, 6-Bromo-2-oxo-2H-chromene-3-carbonitrile] | > 100 |
| CS(=O)(=O)c1cc2cc(Br)ccc2oc1=O [2f, 6-Bromo-3-(methylsulfonyl)-2H-chromen-2-one] | > 100 |
| CCOC(=O)c1cc2cc(Br)cc(Br)c2oc1=O [2g, Ethyl 6,8-dibromo-2-oxo-2H-chromene-3-carboxylate] | > 100 |
| CCOC(=O)c1cc2cc(I)cc(I)c2oc1=O [2i, Ethyl 6,8-diiodo-2-oxo-2H-chromene-3-carboxylate] | > 100 |
| O=C(O)c1cc2cc(I)cc(I)c2oc1=O [2j, 6,8-diiodo-2-oxo-2H-chromene-3-carboxylic Acid] | > 100 |
| CC[C@@]1(O)C(=O)OCc2c1cc1n(c2=O)Cc2cc3ccccc3nc2-1 [Camptothecin, reference compound] | 0.03 |

System: K-1 thyroid cancer cell line
Experiment: MTT cell viability assay
Assay type: cell-based
Conditions: not given
Experimental: as §1, §2, §3, §4

| Compound | CC50 [µM] |
| --- | --- |
| Ethyl 6-fluoro-2-oxo-2H-chromene-3-carboxylate [2b] | > 100 |

Same assay, conditions: K-1; MTT, 24 h; concentration required to inhibit cell proliferation by 50%; mean ± SD; read-out: CC50

| Compound | CC50 [µM] |
| --- | --- |
| N#Cc1cc2cc(F)ccc2oc1=O [2a, 6-Fluoro-2-oxo-2H-chromene-3-carbonitrile] | > 100 |
| N#Cc1cc2cc(Cl)ccc2oc1=O [2c, 6-Chloro-2-oxo-2H-chromene-3-carbonitrile] | > 100 |
| CCOC(=O)c1cc2cc(Br)ccc2oc1=O [2d, Ethyl 6-bromo-2-oxo-2H-chromene-3-carboxylate] | > 100 |
| N#Cc1cc2cc(Br)ccc2oc1=O [2e, 6-Bromo-2-oxo-2H-chromene-3-carbonitrile] | > 100 |
| CS(=O)(=O)c1cc2cc(Br)ccc2oc1=O [2f, 6-Bromo-3-(methylsulfonyl)-2H-chromen-2-one] | > 100 |
| CCOC(=O)c1cc2cc(Br)cc(Br)c2oc1=O [2g, Ethyl 6,8-dibromo-2-oxo-2H-chromene-3-carboxylate] | > 100 |
| CCOC(=O)c1cc2cc(I)cc(I)c2oc1=O [2i, Ethyl 6,8-diiodo-2-oxo-2H-chromene-3-carboxylate] | > 100 |
| O=C(O)c1cc2cc(I)cc(I)c2oc1=O [2j, 6,8-diiodo-2-oxo-2H-chromene-3-carboxylic Acid] | > 100 |

System: MRC-5 lung fibroblast
Experiment: MTT cell viability assay
Assay type: cell-based
Conditions: not given
Experimental: as §1, §2, §3, §4

| Compound | CC50 [µM] |
| --- | --- |
| Ethyl 6-fluoro-2-oxo-2H-chromene-3-carboxylate [2b] | > 100 |

System: Nthy-ori-3-1 thyroid normal cell line
Experiment: MTT cell viability assay
Assay type: cell-based
Conditions: not given
Experimental: as §1, §2, §3, §4

| Compound | CC50 [µM] |
| --- | --- |
| Ethyl 6-fluoro-2-oxo-2H-chromene-3-carboxylate [2b] | > 100 |

System: SK-MES-1 lung cancer cell line
Experiment: MTT cell viability assay
Assay type: cell-based
Conditions: not given
Experimental: as §1, §2, §3, §4

| Compound | CC50 [µM] |
| --- | --- |
| Ethyl 6-fluoro-2-oxo-2H-chromene-3-carboxylate [2b] | > 100 |

Same assay, conditions: Homo sapiens; SK-MES-1; MTT, 24 h; concentration required to inhibit cell proliferation by 50%; mean ± SD; read-out: CC50

| Compound | CC50 [µM] |
| --- | --- |
| N#Cc1cc2cc(F)ccc2oc1=O [2a, 6-Fluoro-2-oxo-2H-chromene-3-carbonitrile] | > 100 |
| N#Cc1cc2cc(Cl)ccc2oc1=O [2c, 6-Chloro-2-oxo-2H-chromene-3-carbonitrile] | > 100 |
| CCOC(=O)c1cc2cc(Br)ccc2oc1=O [2d, Ethyl 6-bromo-2-oxo-2H-chromene-3-carboxylate] | > 100 |
| N#Cc1cc2cc(Br)ccc2oc1=O [2e, 6-Bromo-2-oxo-2H-chromene-3-carbonitrile] | > 100 |
| CS(=O)(=O)c1cc2cc(Br)ccc2oc1=O [2f, 6-Bromo-3-(methylsulfonyl)-2H-chromen-2-one] | > 100 |
| CCOC(=O)c1cc2cc(Br)cc(Br)c2oc1=O [2g, Ethyl 6,8-dibromo-2-oxo-2H-chromene-3-carboxylate] | > 100 |
| CCOC(=O)c1cc2cc(I)cc(I)c2oc1=O [2i, Ethyl 6,8-diiodo-2-oxo-2H-chromene-3-carboxylate] | > 100 |
| O=C(O)c1cc2cc(I)cc(I)c2oc1=O [2j, 6,8-diiodo-2-oxo-2H-chromene-3-carboxylic Acid] | > 100 |
| CC[C@@]1(O)C(=O)OCc2c1cc1n(c2=O)Cc2cc3ccccc3nc2-1 [Camptothecin, reference compound] | 0.017 ± 0.003 |

System: TPC-1 thyroid cancer cell line
Experiment: MTT cell viability assay
Assay type: cell-based
Conditions: not given
Experimental: as §1, §2, §3, §4

| Compound | CC50 [µM] |
| --- | --- |
| Ethyl 6-fluoro-2-oxo-2H-chromene-3-carboxylate [2b] | > 100 |

Same assay, conditions: Homo sapiens, TPC1; TPC-1; MTT, 24 h; concentration required to inhibit cell proliferation by 50%; mean ± SD; read-out: CC50

| Compound | CC50 [µM] |
| --- | --- |
| N#Cc1cc2cc(F)ccc2oc1=O [2a, 6-Fluoro-2-oxo-2H-chromene-3-carbonitrile] | > 100 |
| N#Cc1cc2cc(Cl)ccc2oc1=O [2c, 6-Chloro-2-oxo-2H-chromene-3-carbonitrile] | > 100 |
| CCOC(=O)c1cc2cc(Br)ccc2oc1=O [2d, Ethyl 6-bromo-2-oxo-2H-chromene-3-carboxylate] | > 100 |
| N#Cc1cc2cc(Br)ccc2oc1=O [2e, 6-Bromo-2-oxo-2H-chromene-3-carbonitrile] | > 100 |
| CS(=O)(=O)c1cc2cc(Br)ccc2oc1=O [2f, 6-Bromo-3-(methylsulfonyl)-2H-chromen-2-one] | > 100 |
| CCOC(=O)c1cc2cc(Br)cc(Br)c2oc1=O [2g, Ethyl 6,8-dibromo-2-oxo-2H-chromene-3-carboxylate] | > 100 |
| CCOC(=O)c1cc2cc(I)cc(I)c2oc1=O [2i, Ethyl 6,8-diiodo-2-oxo-2H-chromene-3-carboxylate] | > 100 |
| O=C(O)c1cc2cc(I)cc(I)c2oc1=O [2j, 6,8-diiodo-2-oxo-2H-chromene-3-carboxylic Acid] | > 100 |
| CC[C@@]1(O)C(=O)OCc2c1cc1n(c2=O)Cc2cc3ccccc3nc2-1 [Camptothecin, reference compound] | 0.01 ± 0.02 |
